From PubChem BioAssay (NCI)
Several values for one entry are separate records, joined by “and”; a condition that tells them apart may be missing. Equal values may be shown once.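 Step 1: Grow cells in 96-well plates. Step 2: Expose to compound for 48 hours at 5 concentrations. Step 3: Interpolate endpoints linearly; if unreached, use highest concentration. GI50 marks 50% less growth. TGI: concentration producing complete growth inhibition.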

How the values were obtained:
Experiment in all cases: NCI anticancer screen, dose series, 48 h
HOP-62 NSCLC = system: HOP-62 NSCLC
NCI-H522 lung = system: NCI-H522 lung
OVCAR-5 ovarian = system: OVCAR-5 ovarian
SF-295 CNS = system: SF-295 CNS
SF-539 CNS = system: SF-539 CNS
SK-MEL-2 melanoma = system: SK-MEL-2 melanoma
SN12C renal = system: SN12C renal
T-47D breast = system: T-47D breast
U251 CNS = system: U251 CNS

| SMILES | TGI (HOP-62 NSCLC) | TGI (NCI-H522 lung) [µM] | TGI (OVCAR-5 ovarian) [µM] | TGI (SF-295 CNS) | TGI (SF-539 CNS) [µM] | TGI (SK-MEL-2 melanoma) [µM] | TGI (SN12C renal) [µM] | TGI (T-47D breast) [µM] | TGI (U251 CNS) | GI50 (NCI-H522 lung) | GI50 (HOP-62 NSCLC) [µM] | GI50 (SK-MEL-2 melanoma) [µM] | GI50 (U251 CNS) [µM] |
| --- | --- | --- | --- | --- | --- | --- | --- | --- | --- | --- | --- | --- | --- |
| CC1=NC(=N)N=C(C)C1N=Nc1ccc2nc(C)[nH]c2c1 (centres undefined) | > 100 µM | > 100 | > 100 | > 100 µM | > 100 | > 100 | > 100 | > 100 | > 100 µM | – | – | – | – |
| COC(=O)c1c(O)ccc2c1c1c(n2Cc2ccc(OC)cc2)C(=O)c2ccccc2C1 | > 100 µM | – | – | > 100 µM | > 100 | > 100 | 93.3 | – | > 100 µM | – | – | – | – |
| O=C(/C=C/c1ccccc1)c1cc(CN2CCOCC2)c(O)c(CN2CCOCC2)c1 | 39.3 µM | > 100 | 36.2 | 34.8 µM | 32.6 | 61.8 | 25.3 | 48 | 16.3 µM | – | – | – | – |
| COc1ccccc1N=Nc1c(O)ccc2ccccc12 | 30.9 µM and 34.6 µM | > 100 | > 100 | 48.3 µM and 78.2 µM | – | > 100 | > 100 | > 100 | > 62.4 µM and 40.4 µM | > 100 µM and 41.8 µM | – | – | – |
| O=c1c2[nH]cnc2n(-c2ccccc2)c(=S)n1-c1ccccc1 | > 100 µM | > 100 | > 100 | > 100 µM | > 100 | > 100 | > 100 | > 100 | > 100 µM | – | – | – | – |
| O=c1c2ccc(Cl)cc2oc2c(CSc3ccccc3)cccc12 | > 100 µM | > 53.1 | > 100 | > 100 µM | > 60.7 | > 100 | > 100 | > 100 | > 100 µM | – | – | – | – |
| CN(Cc1cnc2nc(N)nc(N)c2n1)c1ccc(C(=O)NC(CCC(=O)O)C(=O)O)c2ccccc12 (centres undefined) | – | 7.12 | > 1000 | > 1000 µM | – | > 1000 | > 1000 | > 1000 | > 1000 µM | 0.0826 µM | < 0.0244 | > 1000 | 293 |
| CC(C)OC(=O)C(NC(=O)C(CC(=O)OCc1ccccc1)NC(=O)OCc1ccccc1)NC(=O)C1C(C)(C)CCC1(C)C (centres undefined) | 18.7 µM | 24.1 | > 55.6 | 31.1 µM | 13.1 | 58.4 | 15.1 | > 69.5 | 4.68 µM | – | – | – | – |
| CC(C)=CC1C(C(=O)OCc2cc3c(cc2Cl)OCO3)C1(C)C (centres undefined) | > 100 µM | 44.2 | > 100 | > 100 µM | – | 23.1 | > 100 | > 100 | 35.1 µM | – | – | – | – |
| O=C(/C=C\c1ccccc1)Oc1ccc(/C=C2\CCC/C(=C\c3ccc(OC(=O)/C=C\c4ccccc4)cc3)C2=O)cc1 | > 100 µM | > 100 | > 100 | > 100 µM | > 100 | > 100 | > 100 | > 100 | > 100 µM | – | – | – | – |
| Cn1c(CO)ccc1-c1ccc(-c2ccc(CO)[se]2)[se]1 | 40.8 µM | > 86.3 | – | > 100 µM | > 100 | 26.9 | > 100 | > 100 | 24.4 µM | – | – | – | – |
| CCCCCCCCCCCC1=C(O)C(=O)C(CC2=C(O)C(=O)C(CCCCCCCCCCC)=C(O)C2=O)=C(O)C1=O | – | > 100 | > 100 | > 100 µM | > 100 | > 100 | > 100 | > 100 | > 100 µM | – | – | – | – |
